{"source": "patent US8530665B2", "about": "(Eli Lilly and Company, priority 2010, dated 2013)", "key": {"[1]": {"tested_on": "FGF receptor 1 (bFGF induced ERK phosphorylation in HUVEC)", "experiment": "AlphaScreen SureFire Detection of ERK phosphorylation (Thr202/Tyr204) in HUVEC", "settings": "Homo sapiens, read-out: IC50 b-FGF induced ERK phosphorylation (Thr202/Tyr204)", "description": "AlphaScreen SureFire Detection of ERK Phosphorylation (Thr202/Tyr204) in Human Umbilical Vein Endothelial Cells (HUVEC)\nThe effect of compound on the inhibition of FGF receptor 1 is measured by monitoring the phosphorylation of ERK (pERK) in response to basic-Fibroblast growth factor (b-FGF) stimulation in Human Umbilical Endothelial cells (HUVEC). […] This is a homogeneous assay format utilizing the immuno-sandwich capture of the phosphorylated analyte followed by detection using antibody-coated ALPHASCREEN® beads (Perkin Elmer) to generate an amplified signal.\nFor the assay, cells are harvested by standard procedures and then counted. […] Plates are incubated overnight at 37° C., 5% CO2.\nOn the day of the assay, cells are serum starved in 100 μL EBM (endothelial cell basal) medium containing 1.5% FBS and 20 mg/mL BSA for 3 hours at 37° C., 5% CO2, then treated with 20 μM of 3× serially diluted compound in starvation medium for 1 hour at 37° C. This yielded a 10 point concentration-response curve ranging from 10-0.005 μM in 1% DMSO. After 1 hour compound treatment, cells are stimulated with 50 μL b-FGF (Sigma, F0291, final b-FGF concentration 50 ng/mL) at 37° C. for 15 minutes. In the wells containing cells and 50 μL stimulator b-FGF yields MAX signal, and cells with 10 μM positive control compound and 50 μL stimulator b-FGF as MIN. […]"}, "[2]": {"tested_on": "FGF9 induced ERK phosphorylation in Human RT112 bladder carcinoma cells", "experiment": "FGF9 induced p-ERK with BSA in RT112 cells", "settings": "RT-112, read-out: IC50 FGF9 induced p-ERK", "description": "FGF9 Induced p-ERK with BSA\nThis yielded a 10 point dose-response curve ranging from 10-0.005 μM in 1% DMSO. The incubation is continued for 1 hour at 37° C. […] Cells are fixed by the addition of 30 μL of a 25% formaldehyde solution in phosphate buffered saline (PBS) (3.7% formaldehyde final concentration), and incubated 30 minutes at RT. Cells are washed 3× with PBS, followed by the addition of 100 μL of cold methanol and incubated for 30 minutes at −20° C. The methanol is removed and the cells are treated with PBS containing 0.1% TRITON® X-100(PBST), washed 3× with PBS, and incubated 15 minutes at RT."}}}
{"smiles": "C[C@@H](Oc1ccc2[nH]nc(/C=C/c3cnn(CCO)c3)c2c1)c1c(Cl)cncc1Cl", "note": "[Preparation 10, (R)-(E)-2-(4-(2-(5-(1-(3,5-Dichloropyridin-4-yl)ethoxy)-1H-indazol-3-yl)vinyl)-1H-pyrazol-1-yl)ethanol]", "values": [{"measurement": "IC50", "setting": "[1]", "value": 0.6, "unit": "nM"}, {"measurement": "IC50", "setting": "[2]", "value": 0.4, "unit": "nM"}]}
